Assay [1] concerns the target T1, Apoptosis regulator Bcl-2 (Homo sapiens, UniProt P10415). The experiment in a line: Inhibition of GST fused Bcl-2 binding to biotinylated 16 mer Bak-BH3 peptide by HTRF-LANCE assay. On the technique in general: Time-resolved FRET reads energy transfer from a long-lived donor to a nearby acceptor.
The target of assay [2] is T1, Apoptosis regulator Bcl-2. The experiment in a line: Inhibition of GST fused Bcl-2 binding to biotinylated 26 mer Bak-BH3 peptide by HTRF-LANCE assay.
For assay [3], the target named is Bcl-2-like protein 1 (Bcl-xL) (Homo sapiens) (UniProt Q07817). The experiment in a line: Inhibition of GST fused Bcl-xL binding to biotinylated 26 mer Bak-BH3 peptide at 30 uM by HTRF-LANCE assay.
For assay [4] the target is unchanged. The experiment in a line: Inhibition of GST fused Bcl-xL binding to biotinylated 16 mer Bak-BH3 peptide at 30 uM by HTRF-LANCE assay.
For assay [5], the target named is T1, Apoptosis regulator Bcl-2. The experiment in a line: Inhibition of GST fused Bcl-2 binding to biotinylated 26 mer Bak-BH3 peptide at 10 uM by HTRF-LANCE assay.
Assay [6] has as its target T1, Apoptosis regulator Bcl-2. The conditions noted are these: 30 uM.
Description: Inhibition of GST fused Bcl-2 binding to biotinylated 16 mer Bak-BH3 peptide at 30 uM by HTRF-LANCE assay
In assay [7] the target is Bcl-2-like protein 1 (Bcl-xL) (Homo sapiens) (UniProt Q07817). The experiment in a line: Inhibition of GST fused Bcl-xL binding to biotinylated 26 mer Bak-BH3 peptide at 10 uM by HTRF-LANCE assay.
For assay [8] the target is unchanged. The experiment in a line: Inhibition of GST fused Bcl-xL binding to biotinylated 16 mer Bak-BH3 peptide at 33 uM by HTRF-LANCE assay.

Active and inactive are the calls of the source. The calls are words filed in the database; no cut-off is given here.

T1 sequence (P10415 whole entry, the tested form may be a part): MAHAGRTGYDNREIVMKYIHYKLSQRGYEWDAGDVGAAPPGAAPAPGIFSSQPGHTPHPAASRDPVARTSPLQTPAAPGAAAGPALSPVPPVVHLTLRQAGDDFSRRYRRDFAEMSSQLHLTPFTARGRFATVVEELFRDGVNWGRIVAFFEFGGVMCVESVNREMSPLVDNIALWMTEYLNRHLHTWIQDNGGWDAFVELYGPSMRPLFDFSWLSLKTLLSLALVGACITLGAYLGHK
Chain of Bcl-2-like protein 1 (Bcl-xL) (Homo sapiens) (Q07817 whole entry, looked up, the tested form may be a part): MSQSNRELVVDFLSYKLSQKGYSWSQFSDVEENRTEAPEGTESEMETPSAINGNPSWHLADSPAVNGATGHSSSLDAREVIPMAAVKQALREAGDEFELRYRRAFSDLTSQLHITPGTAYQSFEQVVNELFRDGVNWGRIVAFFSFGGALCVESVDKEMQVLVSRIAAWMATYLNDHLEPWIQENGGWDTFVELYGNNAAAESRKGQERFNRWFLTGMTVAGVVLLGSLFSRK

Take `CC(=O)NC[C@@H]1Cc2ccccc2CN1C(=O)c1ccccc1-n1nc(C(=O)N(c2ccccc2)c2ccccc2)cc1C`: the half-maximal inhibitory concentration (IC50) in assay [1] came out at 730 nM. Take `Cc1c(Br)c(C(=O)N(c2ccccc2)c2ccccc2)nn1-c1ccccc1C(=O)N1Cc2ccccc2C[C@H]1CO`: the IC50 in assay [2] amounted to 210 nM; in assay [1], 40 nM. In assay [3], this molecule displayed an inhibition of 9%. As to `CCCCN(CCCC)C(=O)c1cc(C)n(-c2ccc(OCC(=O)c3ccccc3)cc2C(=O)N2CCc3ccccc3C2)n1`, the IC50 in assay [2] was found to be 330 nM; in assay [1] it was 20 nM. On the same counts, the results for `CCCCN(CCCC)C(=O)c1nn(-c2ccccc2C(=O)N2Cc3ccccc3C[C@H]2CO)c(C)c1Cl` are 780 nM and 100 nM.

Regarding `Cc1cc(C(=O)N(C)Cc2ccccc2)nn1-c1ccccc1C(=O)N1CCc2ccccc2C1`, in assay [1], the result was inactive.

For `Cc1c(Cl)c(C(=O)N(CC(F)(F)F)CC(F)(F)F)nn1-c1ccccc1C(=O)N1Cc2ccccc2C[C@H]1CO`, the figures for the inhibition in assay [4], in assay [5] and in assay [3] were 13%, 6% and 4%, respectively. In the case of `Cc1c(Cl)c(C(=O)N(c2ccccc2)c2ccccc2)nn1-c1ccccc1C(=O)N1Cc2ccccc2C[C@H]1CN`, the results for the IC50 in assay [2] and in assay [1] were 100 nM and 30 nM, respectively. The molecule further had an inhibition in assay [3] of 28%.

For `Cc1cc(C(=O)Nc2ccccc2)nn1-c1ccccc1C(=O)N1CCc2ccccc2C1`, the half-maximal inhibitory concentration (IC50) in assay [1] came out at 50000 nM. As for `Cc1cc(C(=O)N(c2ccccc2)c2ccccc2)nn1-c1ccccc1C(=O)N1Cc2ccccc2C[C@@H]1C`, the inhibition in assay [6] was 27%; in assay [4], 4%. Molecule `CCCCN(CCCC)C(=O)c1cc(C)n(-c2ccc(NC(=O)CSc3ccccc3)cc2C(=O)N2CCc3ccccc3C2)n1` returned an IC50 in assay [2] of 600 nM. Consider `CNC[C@@H]1Cc2ccccc2CN1C(=O)c1ccccc1-n1nc(C(=O)N(c2ccccc2)c2ccccc2)cc1C`, for which, in assay [1], the IC50 amounted to 140 nM. As for `Cc1c(Cl)c(C(=O)N(c2ccccc2)c2ccccc2)nn1-c1ccccc1C(=O)N1Cc2ccccc2C[C@H]1CO`, the IC50 in assay [2] stood at 480 nM; in assay [1], 50 nM. Moreover, in assay [3], the inhibition was determined as 29%. For `CCN(CC)C(=O)c1nn(-c2ccccc2C(=O)N2Cc3ccccc3C[C@H]2CO)c(C)c1Br`, the inhibition in assay [7] was 14%. Also, the half-maximal inhibitory concentration (IC50) in assay [2] was 17300 nM; in assay [1], 3670 nM. As to `CCCCN(CCCC)C(=O)c1nn(-c2ccccc2C(=O)N2Cc3ccccc3C[C@H]2CN)c(C)c1Cl`, the values for the 50% inhibitory concentration (IC50) in assay [2] and in assay [1] were 160 nM and 20 nM, respectively.

`CCCCN(CCCC)C(=O)c1cc(C)n(-c2ccc(OCC(=O)O)cc2C(=O)N2CCc3ccccc3C2)n1`: the figures for the 50% inhibitory concentration (IC50) in assay [2] and in assay [1] were 130 nM and 10 nM, respectively. Molecule `CCCCN(CCCC)C(=O)c1cc(C)n(-c2ccc(NC(=O)COc3ccccc3)cc2C(=O)N2CCc3ccccc3C2)n1` came in with an IC50 in assay [2] of 510 nM. `Cc1cc(C(=O)N2CCc3ccccc3C2)nn1-c1ccccc1C(=O)N1CCc2ccccc2C1` gave a half-inhibitory concentration (IC50) in assay [1] of 1500 nM. For `CCCCN(CCCC)C(=O)c1nn(-c2ccc(NS(=O)(=O)Cc3ccccc3)cc2C(=O)N2CCc3ccccc3C2)c(C)c1Cl`, the inhibition in assay [7] amounted to 19%.

With `Cc1cc(C(=O)N(c2ccccc2)C2CCCCC2)nn1-c1ccccc1C(=O)N1CCc2ccccc2C1`, the 50% inhibitory concentration (IC50) in assay [1] came to 1400 nM. Consider `CCCCN(CCCC)C(=O)c1nn(-c2ccc(NC(=O)Cc3ccccc3)cc2C(=O)N2CCc3ccccc3C2)c(C)c1Cl`, for which the half-inhibitory concentration (IC50) in assay [2] stood at 270 nM; in assay [1], 40 nM. `Cc1cc(C(=O)N(c2ccccc2)c2ccccc2)nn1-c1ccccc1C(=O)N1Cc2ccccc2C[C@H]1CN(C)C` had an IC50 in assay [1] of 150 nM. Turning to `Cc1cc(C(=O)N(c2ccccc2)c2ccccc2)nn1-c1ccccc1C(=O)N1Cc2ccccc2C[C@H]1CNS(C)(=O)=O`, in assay [8], the inhibition was found to be 40%. In addition, the IC50 in assay [1] amounted to 1050 nM. Turning to `COC(=O)C[C@@H]1Cc2ccccc2CN1C(=O)c1ccccc1-n1nc(C(=O)N(c2ccccc2)c2ccccc2)cc1C`, the IC50 in assay [1] is 280 nM. On the same count and under the same terms, under `Cc1cc(C(=O)N(c2ccccc2)c2ccccc2)nn1-c1ccccc1C(=O)N1Cc2ccccc2C[C@H]1CO` stands 190 nM; under `Cc1cc(C(=O)N(c2ccccc2)c2ccccc2)nn1-c1ccccc1C(=O)N1Cc2ccccc2C[C@H]1CN`, 110 nM; under `CCOC(=O)[C@@H]1Cc2ccccc2CN1C(=O)c1ccccc1-n1nc(C(=O)N(c2ccccc2)c2ccccc2)cc1C`, 5610 nM. Turning to `CCCCN(CCCC)C(=O)c1nn(-c2ccc(N)cc2C(=O)N2Cc3ccccc3C[C@H]2CN)c(C)c1Cl`, in assay [2], the IC50 came to 380 nM. Consider `Cc1cc(C(=O)N(c2ccccc2)c2ccccc2)nn1-c1ccccc1C(=O)N1Cc2ccccc2C[C@H]1C`, for which the IC50 in assay [1] is 110 nM. In other words, the sub-micromolar range.

For `CCCCN(CCCC)C(=O)c1nn(-c2ccc(NC(=O)COc3ccccc3)cc2C(=O)N2CCc3ccccc3C2)c(C)c1Cl`, the 50% inhibitory concentration (IC50) in assay [2] came to 130 nM; in assay [1], 40 nM. On to `COC[C@@H]1Cc2ccccc2CN1C(=O)c1ccccc1-n1nc(C(=O)N(c2ccccc2)c2ccccc2)cc1C`, for which the IC50 in assay [1] was 160 nM.

As a reminder, the IC50 is the concentration at which inhibition is half-maximal. The term inhibition denotes how much of the control response was suppressed. High values mean a response far below the control, low ones a response near the control.

The record behind these values is ChEMBL document CHEMBL1139292, “Tetrahydroisoquinoline amide substituted phenyl pyrazoles as selective Bcl-2 inhibitors” (Bioorg Med Chem Lett, 2009).
